Key:
Type in all cases: cell-based, human
[1] = tested on: peptide-pulsed A24-LCL cells; experiment: IFN-gamma ELISPOT assay (positive wells); conditions: HLA-A*2402, 9-mer peptides derived from INHBB; positive/total wells
Method in brief: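 PBMC-derived DCs from HLA-A*2402 and/or A*0201 donors, pulsed with 20 micro g/ml peptide plus 3 micro g/ml beta 2-microglobulin, stimulated autologous CD8+ T cells three times (days 0, 7, 14). On day 21, responders were tested against peptide-pulsed A24-LCL or T2 cells by IFN-gamma ELISPOT. Values are reported as positive wells/wells tested; CTL lines confirmed by ELISA.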

[2] = tested on: CD8+ T cells (HLA-A*2402 donors); experiment: In vitro CTL induction with peptide-pulsed DCs (positive donor number); conditions: HLA-A*2402, 9-mer peptides derived from INHBB; positive/total donors
Method in brief: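 Autologous CD8+ T cells from HLA-A*2402 and/or A*0201 donors stimulated with MMC-inactivated monocyte-derived DCs pulsed with 20 μg/ml peptide, at 1:20 DC:T with IL-7, then IL-2 (20 IU/ml); restimulated days 7 and 14. CTL tested day 21 on peptide-pulsed A24-LCL or T2 cells; reported as positive/total donors.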

[3] = tested on: peptide-pulsed T2 cells; experiment: CTL line establishment, IFN-gamma ELISA; conditions: HLA-A*0201, 9-mer peptides derived from INHBB; CTL lines/positive wells
Method in brief: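 CTLs expanded with MMC-inactivated B-lymphoblastoid lines, 40 ng/ml anti-CD3 and IL-2 (120 IU/ml day 1, then 30 IU/ml on days 5, 8, 11). Peptide-pulsed T2 or A24-LCL stimulators (1×10^4/well) incubated with cultured wells or limiting-dilution clones as responders; IFN-gamma detected by ELISPOT (positive wells) and ELISA (established CTL lines).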

## VQCDSCQEL
[1]
  positive well number: 0/8
[2]
  positive donor number: 0/1
[3]
  positive CTL line: 0/1

— US8759481B2, “Peptide vaccines for cancers expressing tumor-associated antigens” (Oncotherapy Science, Inc., priority 2007, dated 2014)
